Results taken from ChEMBL document CHEMBL5712891, “Inhibition of BET bromodomain-dependent XIAP and FLIP expression sensitizes KRAS-mutated NSCLC to pro-apoptotic agents” (Cell Death Dis, 2016).
The source made the active and inactive calls. The rule behind the calls is not given here.

Assays:
A549 [1] = assay: Antitumor activity against human A549 cells assessed as test to control tumor ratio at 50 mg/kg, ip for 28 days relative to control; assay type: functional; conditions: time 28 day
NCI-H460 [2] = assay: Induction of cell cycle arrest in human NCI-H460 cells assessed as accumulation of cells at G2/M phase at 0.1 uM for 24 hrs by Click-iT EdU Alexa Fluor 647 flow cytometric assay kit analysis (reference value: 1%); assay type: functional
NCI-H460 [3] = assay: Induction of cell cycle arrest in human NCI-H460 cells assessed as accumulation of cells at S phase at 1 uM for 24 hrs by Click-iT EdU Alexa Fluor 647 flow cytometric assay kit analysis (reference value: 56%); assay type: functional
NCI-H460 [4] = assay: Induction of cell cycle arrest in human NCI-H460 cells assessed as accumulation of cells at G0/G1 phase at 0.5 uM for 24 hrs by Click-iT EdU Alexa Fluor 647 flow cytometric assay kit analysis (reference value: 43%); assay type: functional
[5] = Toxicity in SCID mouse xenografted with human NCI-H1373 cells assessed as body weight loss at 50 mg/kg, ip measured on after 15 days relative to control; assay type: organism-based; conditions: in vivo, 360 h, time 15 day
DV-90 [6] = assay: Induction of cell cycle arrest in human DV-90 cells assessed as accumulation of cells at S phase at 0.1 uM for 24 hrs by Click-iT EdU Alexa Fluor 647 flow cytometric assay kit analysis (reference value: 31%); assay type: functional
NCI-H460 [7] = assay: Induction of cell cycle arrest in human NCI-H460 cells assessed as accumulation of cells at G0/G1 phase at 0.1 uM for 24 hrs by Click-iT EdU Alexa Fluor 647 flow cytometric assay kit analysis (reference value: 43%); assay type: functional
NCI-H460 [8] = assay: Induction of apoptosis in human NCI-H460 cells assessed as necrotic cells at 0.5 uM for 24 hrs by annexin V-PI staining based flow cytometric analysis (reference value: 2.7%); assay type: functional
NCI-H460 [9] = assay: Induction of cell cycle arrest in human NCI-H460 cells assessed as accumulation of cells at S phase at 0.25 uM for 24 hrs by Click-iT EdU Alexa Fluor 647 flow cytometric assay kit analysis (reference value: 56%); assay type: functional
DV-90 [10] = assay: Induction of cell cycle arrest in human DV-90 cells assessed as accumulation of cells at S phase at 0.5 uM for 24 hrs by Click-iT EdU Alexa Fluor 647 flow cytometric assay kit analysis (reference value: 31%); assay type: functional
NCI-H358 = assay: Downregulation of XIAP mRNA expression level in human NCI-H358 cells at 0.1 to 1 uM for 24 hrs by qRT-PCR analysis; assay type: functional, cell-based; conditions: dose 0.1-1 µM
NCI-H1373 [11] = assay: Induction of apoptosis in human NCI-H1373 cells assessed as early apoptotic cells at 0.5 uM for 24 hrs by annexin V-PI staining based flow cytometric analysis (reference value: 0.6%); assay type: functional
DV-90 [12] = assay: Induction of cell cycle arrest in human DV-90 cells assessed as accumulation of cells at S phase at 1 uM for 24 hrs by Click-iT EdU Alexa Fluor 647 flow cytometric assay kit analysis (reference value: 31%); assay type: functional
NCI-H460 [13] = assay: Induction of cell cycle arrest in human NCI-H460 cells assessed as accumulation of cells at G0/G1 phase at 0.25 uM for 24 hrs by Click-iT EdU Alexa Fluor 647 flow cytometric assay kit analysis (reference value: 43%); assay type: functional
NCI-H460 [14] = assay: Induction of apoptosis in human NCI-H460 cells assessed as late apoptotic cells at 0.5 uM for 24 hrs by annexin V-PI staining based flow cytometric analysis (reference value: 3.0%); assay type: functional
DV-90 [15] = assay: Induction of cell cycle arrest in human DV-90 cells assessed as accumulation of cells at S phase at 0.25 uM for 24 hrs by Click-iT EdU Alexa Fluor 647 flow cytometric assay kit analysis (reference value: 31%); assay type: functional
NCI-H460 [16] = assay: Induction of cell cycle arrest in human NCI-H460 cells assessed as accumulation of cells at G2/M phase at 0.5 uM for 24 hrs by Click-iT EdU Alexa Fluor 647 flow cytometric assay kit analysis (reference value: 1%); assay type: functional
NCI-H460 [17] = assay: Induction of cell cycle arrest in human NCI-H460 cells assessed as accumulation of cells at G2/M phase at 1 uM for 24 hrs by Click-iT EdU Alexa Fluor 647 flow cytometric assay kit analysis (reference value: 1%); assay type: functional
NCI-H460 [18] = assay: Induction of cell cycle arrest in human NCI-H460 cells assessed as accumulation of cells at G0/G1 phase at 1 uM for 24 hrs by Click-iT EdU Alexa Fluor 647 flow cytometric assay kit analysis (reference value: 43%); assay type: functional
NCI-H460 [19] = assay: Induction of cell cycle arrest in human NCI-H460 cells assessed as accumulation of cells at S phase at 0.5 uM for 24 hrs by Click-iT EdU Alexa Fluor 647 flow cytometric assay kit analysis (reference value: 56%); assay type: functional
NCI-H460 [20] = assay: Induction of cell cycle arrest in human NCI-H460 cells assessed as accumulation of cells at S phase at 0.1 uM for 24 hrs by Click-iT EdU Alexa Fluor 647 flow cytometric assay kit analysis (reference value: 56%); assay type: functional
NCI-H460 [21] = assay: Induction of cell cycle arrest in human NCI-H460 cells assessed as accumulation of cells at G2/M phase at 0.25 uM for 24 hrs by Click-iT EdU Alexa Fluor 647 flow cytometric assay kit analysis (reference value: 1%); assay type: functional
SK-LU-1 = assay: Downregulation of XIAP protein expression level in human SK-LU-1 cells at 1 uM for 24 hrs by […] analysis; assay type: functional, cell-based
A549 [22] = assay: Induction of apoptosis in human A549 cells assessed as necrotic cells at 1 uM by annexin V-PI based flow cytometric analysis (reference value: 1.6%); assay type: functional
NCI-H441 = assay: Downregulation of FLIP mRNA expression level in human NCI-H441 cells at 0.1 to 1 uM for 24 hrs by qRT-PCR analysis; assay type: functional, cell-based; conditions: dose 0.1-1 µM
DV-90 [23] = assay: Induction of cell cycle arrest in human DV-90 cells assessed as accumulation of cells at S phase at 1 uM for 24 hrs by Click-iT EdU Alexa Fluor 647 flow cytometric assay kit analysis (reference value: 30%); assay type: functional
NCI-H1373 [24] = assay: Induction of cell cycle arrest in human NCI-H1373 cells assessed as accumulation of cells at G0/G1 phase at 0.25 uM for 24 hrs by Click-iT EdU Alexa Fluor 647 flow cytometric assay kit analysis (reference value: 48%); assay type: functional
NCI-H460 [25] = assay: Induction of cell cycle arrest in human NCI-H460 cells assessed as accumulation of cells at S phase at 0.25 uM for 24 hrs by Click-iT EdU Alexa Fluor 647 flow cytometric assay kit analysis (reference value: 54%); assay type: functional
A549 [26] = assay: Induction of apoptosis in human A549 cells assessed as necrotic cells at 2.5 uM for 24 hrs by annexin V-PI staining based flow cytometric analysis (reference value: 0.9%); assay type: functional
NCI-H460 [27] = assay: Induction of apoptosis in human NCI-H460 cells assessed as viable cells at 2.5 uM for 24 hrs by annexin V-PI staining based flow cytometric analysis (reference value: 92.8%); assay type: functional; conditions: read-out: Activity

Row | Structure (SMILES) | Activity (NCI-H460 [2]) [%] | Activity (NCI-H460 [3]) [%] | Activity (NCI-H460 [4]) [%] | Activity (DV-90 [6]) [%] | Activity (NCI-H460 [7]) [%] | Activity (NCI-H460 [9]) [%] | Activity (DV-90 [10]) [%] | Activity (DV-90 [12]) [%] | Activity (NCI-H460 [13]) [%] | Activity (DV-90 [15]) [%] | Activity (NCI-H460 [16]) [%] | Activity (NCI-H460 [17]) [%] | Activity (NCI-H460 [18]) [%] | Activity (NCI-H460 [19]) [%] | Activity (NCI-H460 [20]) [%] | Activity (NCI-H460 [21]) [%] | also measured
1 | Cc1sc2c(c1C)C(c1ccc(Cl)cc1)=N[C@@H](CC(=O)OC(C)(C)C)c1nnc(C)n1-2 | 1 | 54 | 45 | 27 | 44 | 57 | 18 | 15 | 41 | 24 | 1 | 1 | 45 | 54 | 55 | 1 | T/C (A549 [1]): 79%; Activity [5]: 5%; Activity (NCI-H460 [8]): 4%; Activity (NCI-H358): Active; Activity (NCI-H1373 [11]): 2.5%; Activity (NCI-H460 [14]): 4.5%; Activity (SK-LU-1): Active; Activity (A549 [22]): 0.6%; Activity (NCI-H441): Active
2 | CCNC(=O)C[C@@H]1N=C(c2ccc(Cl)cc2)c2cc(OC)ccc2-n2c(C)nnc21 [MOLIBRESIB] | 1 | 47 | 49 |  | 46 | 54 |  |  | 45 |  | 1 | 1 | 51 | 49 | 53 | 1 | Activity (DV-90 [23]): 22%; Activity (NCI-H1373 [24]): 65%; Activity (NCI-H460 [25]): 56%
3 | Cc1sc2c(c1C)C(c1ccc(Cl)cc1)=N[C@@H](CC(=O)Nc1ccc(O)cc1)c1nnc(C)n1-2 [BIRABRESIB] | 1 |  |  | 20 |  |  | 17 | 17 |  | 21 | 3 | 1 |  |  |  | 1 | Activity (A549 [26]): 1.1%; viability at 2.5 µM (NCI-H460 [27]): 90.4%
